In one experiment the test system is Leishmania major. Kind of experiment: Effect on the leishmanicidal activity of murine peritoneal macrophage (3H-thymidine incorporation by living parasites). It counts as cell-based. The conditions noted are these: for cpm (counts per minute), 3H-thymidine incorporation by living parasites: control 18,273. How it is done:
Effect on the leishmanicidal activity of murine peritoneal macrophage The peritoneal cells collected as described above were seeded in 96-well flat bottom plates (Nunc, Roskiled, DK) at a concentration of 10^5 […]; and incubated per 24 hours at 37° C. At the end of the treatment, the cells not adherent to the well were separated and discharged, whereas the adherent cells were washed three time with culture medium and incubated for 24 hours with the compounds in question, then the cells were infected through a 24 hours incubation with promastigotes of Leishmania major (L. major, PVL49 strain supplied by Dr. Neal R. A., London School of Hygiene and Tropical Medicine, London, UK). At the end of the infection treatment each well was added with 100 μl of a 0.01% solution od sodium dodecylsulphate in RPMI 1640, and the plates were incubated for 30 minutes at 37° C. The Schneider's culture medium (Schneider Drosophila medium, Gibco Lab., Grand Island, N.Y., USA) with 30% of FCS was added. Each well was added with 1 μCi of ^3 H-thymidine, and a 72 hours incubation was carried out at 37° C. The incorporation of radioactivity by the living parasites inside the peritoneal cells, which is correlated to the infection degree and consequently to the leishmanicidal activity of the cells, was measured by collecting the cells by means of a cell-harvester and measuring the radioactivity with liquid scintillation β-counter.
For orientation: Dividing cells build labelled thymidine or BrdU into new DNA.

Another experiment has as its system murine peritoneal cells. Kind of experiment: Stimulation of the nitric oxide by murine peritoneal cells (chemiluminescence). Particulars: 96 h, with LPS 30 μg/ml; for nitric oxide, Stimulation index: with respect to control; for nitric oxide content: control 20. Format: cell-based, BALB/C mice. As for the experimental part: Stimulation of the nitric oxide by murine peritoneal cells The peritoneal cells were obtained as described in the previous test, and incubated for 96 hours at 37° C. in the presence of the compounds in question and of lipopolysaccharide at a concentration of 30 μg/ml. At the end of the treatment the supernatants were collected and the nitric oxide content was determined by the chemiluminescence test described by Palmer R. M. J. et al, Nature, 327, 524, 1987.

The test system of a further experiment is murine splenocytes. Kind of experiment: Stimulation of in vitro IFN-.tau. production by murine splenocytes (ELISA). The conditions noted are these: for IFN-.tau. production, Stimulation index / IFN-.tau. production, U/ml: 24 h; for IFN-.tau. production, Stimulation index: with respect to control; for IFN-.tau. production, U/ml: control 31 (Ex. 1, Ex. 2), 41 (Ex. 3). Format: cell-based, BALB/C mice. As for the experimental part: Stimulation of in vitro IFN-.tau.production by murine splenocytes The splenic cells were obtained from spleen of BALB/C mice as single cells suspension. The splenocytes thus obtained were resuspended in RPMI 1640 culture medium (Flow Lab., Hertz, UK) containing 5% of fetal calf serum (FCS) (HyClone, ST, Utah, USA) at a final concentrazione of 10^7 cells/ml, and incubated in 96-well plates for 24 hours at 37° C. in the presence of the tested compounds at the indicated concentration. At the end of the incubation the supernatant was collected, filtered by […] filter and freezed to -80° C. until the time of the test carried out by ELISA commercial kit (Genzyme, Boston, Mass., USA).

Experiment [1] relates to murine peritoneal macrophages. Kind of experiment: Stimulation of IL-1 production by murine peritoneal macrophages (ELISA). It counts as cell-based, BALB/C mice. Particulars: 96 h; for IL-1 production, Stimulation index: with respect to control; for IL-1 production, U/ml: control 15. The text has this: Stimulation of IL-1 production by murine peritoneal macrophages Murine peritoneal macrophages were obtained by inoculation of a solution of hydrolized starch (BDH Chemicals, Poole, Dorset, UK) into the peritoneal cavity of BALB/C mice, three days before sacrificing the animals. The peritoneal cells were then collected by washing the peritoneal cavity with a solution of RPMI 1640 containing 10% of FCS, and resuspended in the same solution at a concetration of 10^6 cells/ml in 96-well plates. The incubation was performed for 96 hours at 37° C. in the presence of the compounds in question. At the end of the treatment the supernatants were collected and used for dosing cytokine by means of a suitable ELISA commerical kit (Genzyme, Boston, Mass., USA).
(In general: An ELISA detects its analyte on a solid surface through an enzyme-linked reagent.)

The next experiment has as its system BALB/C mice. The experiment is described as follows: In vivo protection against septic shock (LPS-inoculated mice, survival). The conditions noted are these: LPS 50 mg/kg i.p., compound at time 0 or 30 minutes after LPS, checked for 8 days. How it is done: Evaluation of the in vivo protection against septic shock
BALB/C mice (6 mice/group) weighting between 20 and 25 g, were intraperitoneally inoculated with 50 mg/kg of LPS (lipopolysaccharide-Sigma). The groups, except for the control, were inoculated with increasing doses of one of the compounds of the invention dissolved in physiologic solution having a final volume of 0.5 ml, at time 0 (i.e. together with LPS) or 30 minutes after the LPS inoculation. The mice were checked for 8 days to determined the survival percentage. Compound of Example 1 yields a survival percentage of about 65% at doses of 6.2 ug/mouse and 0.62 ug/mouse, and its isomer B yields a survival percentage of about 80% at a dose of 6.25 ug/mouse and of 75% at a dose of 62.5 ug/mouse.

Structures are written as SMILES.

Consider `N=C(N)NCCC[C@H](NC(=O)[C@@H]1CCCN1C(=O)C(CCCCN)C(=O)NCN)C(=O)O` (single isomer, unassigned) [Example 1], for which the “% reduction of infection” value is on record as “over 70%” with Leishmania major (0.1 μg/ml (minimum dose used)); 72% in the experiment with Leishmania major (0.1 μg/ml (minimum dose used), listed as Es. 1); 79% in the experiment on Leishmania major (1.0 μg/ml); 77% in the experiment on Leishmania major (10.0 μg/ml). Moreover, the “cpm (counts per minute), 3H-thymidine incorporation by living parasites” value in the experiment with Leishmania major (0.1 μg/ml) is 5,096 cpm; in the experiment on Leishmania major (1.0 μg/ml) it was 3,783 cpm; with Leishmania major (10.0 μg/ml) it was 4,292 cpm. Moreover, the “nitric oxide, Stimulation index” value in the experiment with murine peritoneal cells (0.01 μg/ml) turned out to be 2.2; in the experiment with murine peritoneal cells (0.1 μg/ml), 3.0; in the experiment on murine peritoneal cells (1.0 μg/ml), 3.9; with murine peritoneal cells (10.0 μg/ml), 2.9. For the same compound, the “nitric oxide content” value in the experiment on murine peritoneal cells (0.01 μg/ml) was found to be 43 nmol/mL; in the experiment on murine peritoneal cells (0.1 μg/ml), 59 nmol/mL; in the experiment with murine peritoneal cells (1.0 μg/ml), 77 nmol/mL; with murine peritoneal cells (10.0 μg/ml) it was 57 nmol/mL. In addition, the “IFN-.tau. production, Stimulation index” value in the experiment on murine splenocytes (0.1 μg/ml) was 1.1; with murine splenocytes (1.0 μg/ml), 1.9; in the experiment on murine splenocytes (10.0 μg/ml), 1.6. In addition, the “IFN-.tau. production, U/ml” value is reported as 33 U/ml with murine splenocytes (0.1 μg/ml), 60 U/ml in the experiment on murine splenocytes (1.0 μg/ml) and 49 U/ml in the experiment on murine splenocytes (10.0 μg/ml). For the same compound, the “IFN-.tau. production, change in words” value in the experiment on murine splenocytes (1.0 μg/ml) is “doubled”. Also, the “IL-1 production, Stimulation index” value is listed as 0.4 in experiment [1] (0.01 μg/ml), 0.1 in experiment [1] (0.1 μg/ml), 0.1 in experiment [1] (1.0 μg/ml) and 0,1 in experiment [1] (10.0 μg/ml). For the same compound, the “IL-1 production, U/ml” value came to 6 U/ml in experiment [1] (0.01 μg/ml), 2 U/ml in experiment [1] (0.1 μg/ml), 2 U/ml in experiment [1] (1.0 μg/ml) and 2 U/ml in experiment [1] (10.0 μg/ml). Besides, the survival percentage result in the experiment on BALB/C mice (0.62 ug/mouse) and with BALB/C mice (6.2 ug/mouse) was “about 65%” in each case.
As to `N=C(N)NCCC[C@H](NC(=O)[C@@H]1CCCN1C(=O)C(CCCCN)C(=O)NCN)C(=O)O` (single isomer, unassigned) [ITF 1358], the survival percentage result is on record as “about 80%” in the experiment with BALB/C mice (6.25 ug/mouse) and 75% in the experiment with BALB/C mice (62.5 ug/mouse).

For the origin of these results see patent US5578575A, “Partially modified and retro-inverted tetrapeptides analogues of C-reactive protein fragments” (Italfarmaco S.P.A., priority 1992, dated 1996).
